Target: T1, CDC42 BPB (MRCKB) (Homo sapiens, UniProt Q9Y5S2)
T1 construct: purchased Thermo Fisher Scientific (Life Technologies) SelectScreen
Assay: SelectScreen Z'LYTE
Assay type: biochemical
Summary of the method: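 NU5455 was profiled across the SelectScreen Broad panel of kinase activity and binding assays. Z'LYTE reactions such as CSF1R ran at apparent Km ATP, while the Adapta CAMK1 assay used ATP listed as 10. Values are given as percent.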

T1 sequence (Q9Y5S2 whole entry): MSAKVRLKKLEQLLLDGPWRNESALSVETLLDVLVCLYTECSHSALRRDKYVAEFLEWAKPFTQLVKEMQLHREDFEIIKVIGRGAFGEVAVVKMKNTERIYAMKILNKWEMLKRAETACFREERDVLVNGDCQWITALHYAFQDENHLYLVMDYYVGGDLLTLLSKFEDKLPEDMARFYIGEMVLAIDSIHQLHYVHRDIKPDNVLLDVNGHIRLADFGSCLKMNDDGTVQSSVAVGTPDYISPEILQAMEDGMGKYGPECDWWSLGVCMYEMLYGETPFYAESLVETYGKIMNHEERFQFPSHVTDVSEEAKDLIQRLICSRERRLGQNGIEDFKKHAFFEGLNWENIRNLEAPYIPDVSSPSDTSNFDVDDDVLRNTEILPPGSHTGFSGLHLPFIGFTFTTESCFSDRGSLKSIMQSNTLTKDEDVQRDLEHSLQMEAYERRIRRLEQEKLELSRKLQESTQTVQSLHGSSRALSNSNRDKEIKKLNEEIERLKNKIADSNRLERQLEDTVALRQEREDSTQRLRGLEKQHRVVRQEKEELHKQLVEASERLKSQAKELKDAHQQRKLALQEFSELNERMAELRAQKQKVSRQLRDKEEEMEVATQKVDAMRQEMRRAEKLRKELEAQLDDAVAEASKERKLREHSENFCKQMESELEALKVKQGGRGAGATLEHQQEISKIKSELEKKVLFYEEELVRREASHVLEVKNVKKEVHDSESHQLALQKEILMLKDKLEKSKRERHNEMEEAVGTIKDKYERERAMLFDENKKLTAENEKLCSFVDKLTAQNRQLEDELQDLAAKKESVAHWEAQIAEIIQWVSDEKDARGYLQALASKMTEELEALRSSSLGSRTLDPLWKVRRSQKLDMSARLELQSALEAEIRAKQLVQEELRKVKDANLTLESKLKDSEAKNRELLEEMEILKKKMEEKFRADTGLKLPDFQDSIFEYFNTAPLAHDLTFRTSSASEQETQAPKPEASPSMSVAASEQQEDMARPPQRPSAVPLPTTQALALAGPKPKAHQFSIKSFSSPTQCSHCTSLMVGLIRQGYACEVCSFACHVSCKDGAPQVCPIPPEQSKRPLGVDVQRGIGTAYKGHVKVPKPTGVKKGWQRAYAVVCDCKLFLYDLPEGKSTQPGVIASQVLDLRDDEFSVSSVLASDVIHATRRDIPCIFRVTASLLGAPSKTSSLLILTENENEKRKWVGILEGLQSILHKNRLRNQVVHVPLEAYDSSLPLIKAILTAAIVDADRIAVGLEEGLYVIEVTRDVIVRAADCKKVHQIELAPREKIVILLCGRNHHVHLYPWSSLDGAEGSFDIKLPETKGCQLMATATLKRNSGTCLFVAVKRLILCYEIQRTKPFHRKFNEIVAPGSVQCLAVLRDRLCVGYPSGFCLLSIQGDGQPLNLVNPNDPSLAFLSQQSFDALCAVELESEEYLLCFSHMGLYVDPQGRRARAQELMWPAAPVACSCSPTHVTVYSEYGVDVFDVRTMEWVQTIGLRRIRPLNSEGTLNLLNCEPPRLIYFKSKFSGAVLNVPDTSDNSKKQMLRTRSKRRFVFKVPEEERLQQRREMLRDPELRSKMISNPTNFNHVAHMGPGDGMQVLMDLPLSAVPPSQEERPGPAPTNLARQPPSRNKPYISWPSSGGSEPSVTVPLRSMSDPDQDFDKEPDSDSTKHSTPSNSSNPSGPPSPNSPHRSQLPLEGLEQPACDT

For `CN(C(=O)CN1CCOCC1)c1ccc2sc3c(-c4cccc5c(=O)cc(N6CC7CCC(C6)O7)oc45)cccc3c2c1` [NU5455], the inhibition at 1 µM was -2.5%.

Reference: paper PMC6934184, “Selective DNA-PKcs inhibition extends the therapeutic index of localized radiotherapy and chemotherapy” (The Journal of Clinical Investigation, 2019)
